From publication PMC12435366, “Maleic anhydride derived diphosphines: adaptable chelators for receptor-targeted ^99mTc, ^64Cu and ^188Re radiotracers” (Chemical Science, 2025)

Test system: PSMA-expressing DU145-PSMA+ prostate cancer cells
Assay: In vitro uptake of 99mTc tracers in DU145-PSMA+ cells
Type: cell-based
Settings: for uptake in DU145-PSMA+ cells (% added radioactivity): 50 kBq purified tracer, 5 × 10^5 cells seeded per well, 37 °C, 1 h incubation, mean ± SD, biological triplicate; for blocking of cell uptake by PSMA inhibitor PMPA: co-incubation with PMPA
Method: To compare the relative uptake and specificity of the new radiotracers for PSMA, [^99mTcO2(DP^Ph-PSMAt)2]^+, [^99mTcO2(DP^An-PSMAt)2]^+ and [^99mTcO2(DP^MEP-PSMAt)2]^+ (50 kBq) were purified from unreacted ^99mTc precursors and excess DP-PSMAt peptide, and each incubated with PSMA-expressing DU145-PSMA+ prostate cancer cells[33] or LNCaP prostate cancer cells (5 × 10^5 cells). After 1 h incubation, uptake of each radiotracer was quantified. […]
4.9 99mTc uptake in DU145, DU145-PSMA+ and LNCaP cells
The following experiment was performed in biological triplicate.
A panel of cell lines were selected that either expressed GCP(II)/PSMA (DU145-PSMA+ (genetically modified to express PSMA),12 and LNCaP (CRL‐1740)), or had low GCP(II)/PSMA expression (DU145 (HTB-81)). All cell lines were cultured in RPMI 1640 medium (R0883, Sigma) containing 10% foetal bovine serum, 2 mM L-glutamine, and 100 U mL−1 penicillin and 100 µg mL−1 streptomycin. Cells were maintained at 37 °C and 5% CO 2. Cells were seeded in 6-well plates at a density of 5 × 10^5 cells per well […]
in 2 mL complete media to achieve 70–80% confluency the following day. Prior to treating cells, cell medium (1 mL/well) was replaced. Solutions containing either [99mTcO2(DPPh-PSMAt)2]+, [99mTcO2(DPAn-PSMAt)2]+ or [99mTcO2(DPMEP-PSMAt)2]+ (50 kBq in 10 μL of PBS, >95% radiochemical purity) were added to each well, and the cells incubated at 37 °C for 1 h. Uptake studies were also performed after a 2 min incubation with the PSMA inhibitor 2 -(phosphonomethyl)pentane -1,5-dioic acid (PMPA; 30 µL of 750 µM PMPA solution/well). After 60 min incubation, the supernatant was removed, and the cells were washed with PBS solution (2 × 1 mL). The cells were lysed with ice cold radioimmunoprecipitation assay buffer (RIPA buffer, 500 μL; 150 mM sodium chloride, 0.1% w/w sodium dodecyl sulfate (SDS), 0.5% w/w sodium deoxycholate (NaDOC), 1% w/w Triton-X) and samples were collected for radioactivity counting. Results are depicted as means ± SD of independent biological experiments (performed on different days with different radiotracer preparations). […]
Biodistribution studies using 99mTc radiotracers were performed once a tumour had reached 150– 300 mm3 in volume (2–7 weeks after injection).
SCID/beige mice bearing DU145-PSMA+ prostate cancer tumour xenografts
SPECT/CT scanning and biodistribution studies: The 99mTc radiotracers (3.9–4.5 MBq, 3 mice per group, containing DPAn-PSMAt = 3.0 µg or DPMEP-PSMAt = 3.5 µg) were administered via tail vein injection under isoflurane anaesthesia. Following this, SPECT/CT scanning was carried out in one of two methods outlined below, to maintain 2 h biodistribution timepoints : i. The mouse was positioned on a single heated bed in a nanoScan SPECT/CT 80W scanner (Mediso Ltd., Budapest, Hungary) calibrated for 99mTc. A helical CT scan was acquired (50 kV X-ray source, 170 ms exposure time in 360 projections over 3 min). At 15 min post -injection, whole body SPECT scans were acquired (1 × 15 min, 3 × 30 min, conducted sequentially) with a frame time of 13 s and 26 s (using a 4-head scanner with 4 × 9 [1.4 mm] pinhole collimators

| Compound | uptake in DU145-PSMA+ cells (% added radioactivity) [%AR] | mean difference in uptake compared with [^99mTcO2(DP^Ph-PSMAt)2]^+ (DU145-PSMA+ cells, 1 h) [%AR] | blocking of cell uptake by PSMA inhibitor PMPA (DU145-PSMA+ cells, 1 h) | mean difference in uptake compared with [^99mTcO2(DP^MEP-PSMAt)2]^+ (DU145-PSMA+ cells, 1 h) [%AR] |
| --- | --- | --- | --- | --- |
| COCCOc1ccc(P(/C(C(=O)O)=C(/C(=O)NCCOCCOCCOCCOCCC(=O)NCCCC[C@H](NC(=O)N[C@@H](CCC(=O)O)C(=O)O)C(=O)O)P(c2ccc(OCCOC)cc2)c2ccc(OCCOC)cc2)c2ccc(OCCOC)cc2)cc1 [[^99mTcO2(DP^MEP-PSMAt)2]^+, metal not drawn] | 2.7 ± 0.8 | 12.7 | blocked | – |
| COc1ccc(P(/C(C(=O)O)=C(/C(=O)NCCOCCOCCOCCOCCC(=O)NCCCC[C@H](NC(=O)N[C@@H](CCC(=O)O)C(=O)O)C(=O)O)P(c2ccc(OC)cc2)c2ccc(OC)cc2)c2ccc(OC)cc2)cc1 [[^99mTcO2(DP^An-PSMAt)2]^+, metal not drawn] | 8.9 ± 2.1 | 6.5 | blocked | 6.2 |
